What all share (type): cell-based
One test deals with L929 cells. As to the kind of experiment: Necroptosis assay in L929 cells (TNF-α, z-VAD; cell viability by ATP levels). The settings on record: Mus musculus, TNF-α (40 ng/mL), z-VAD (20 μM), 48 hours. The procedure:
[…] Then the cells were treated with TNF-α (40 ng/mL) and z-VAD (20 μM) for 48 hours, and the viability of cells was quantified by detecting adenosine triphosphate (ATP) levels. DMSO pretreatment group was used as negative controls, Nec-1 pretreatment group was used as positive controls.

Test [1] concerns HT29 cells. As to the kind of experiment: Necroptosis assay in HT29 cells (TNF-α, Smac mimetic, z-VAD; cell viability). Particulars: Homo sapiens, HT-29; inhibition of necrosis in HT29 cells, compound at 50 nM.
Test [2] has as its system HT29 cells. The description is as above. The settings on record: Homo sapiens, HT-29; TNF-α (40 ng/mL), Smacmimetic (100 nM), z-VAD (20 μM), 48 hours.

The term pIC50 denotes the IC50 on a negative log10 scale, so that one unit is a factor of ten. By inhibition is commonly meant the relative decrease from the control value, in per cent. A lower inhibition goes with little suppression.

pIC50: −log10 of the molar value. Where a name gives a salt, the structure may show the parent alone.

Compound `Nc1nc2ccc(-c3cnc4c(c3)N(C(=O)OC3CCOCC3)CCO4)cc2s1` [Compound B14, tetrahydro-2H-pyran-4-yl7-(2-aminobenzo[d]thiazol-6-yl)-2,3-dihydro-1H-pyrido[2,3-b][1,4]oxazine-1-carboxylate hydrochloride] gave a pIC50 in the test with L929 cells of 7.90. This compound had an inhibition at 0.05 µM with HT29 cells [1] of 30%.

In the test on HT29 cells [1], `CC(=O)Nc1cn2cc(-c3cnc4c(c3)N(C(=O)OC3CCOCC3)CCO4)ccc2n1` [Compound B18] had an inhibition at 0.05 µM of 10%.

Compound `CC(=O)Nc1cn2nc(-c3cnc4c(c3)N(C(=O)OC3CCOCC3)CCO4)ccc2n1` [Compound B20] showed an inhibition at 0.05 µM in the test on HT29 cells [1] of 20%.

Take `CC(C)(C)OC(=O)Nc1cn2nc(-c3cnc4c(c3)N(C(=O)OC3CCOCC3)CCO4)ccc2n1` [Compound B22]: the pIC50 was 6.94 with HT29 cells [2] and 7.10 with L929 cells. The same compound returned an inhibition at 0.05 µM in the test with HT29 cells [1] of 25%.

In the case of `Nc1cn2nc(-c3cnc4c(c3)N(C(=O)OC3CCOCC3)CCO4)ccc2n1` [Compound B23], the pIC50 in the test on HT29 cells [2] was 6.83; in the test on L929 cells, 7.94. This compound yielded an inhibition at 0.05 µM in the test on HT29 cells [1] of 10%.

The values are drawn from patent publication US11339177B2, “Heteroaryl compounds as inhibitors of necrosis, composition and method using the same” (ACCRO BIOSCIENCE INC., priority 2017, dated 2022).
